According to paper PMC6514812, “[^18F]Fluoroethyltriazolyl Monocyclam Derivatives as Imaging Probes for the Chemokine Receptor CXCR4” (Molecules, 2019):
Read-outs that look alike come from different tables or passages of the source.

Assays:
[1] = test system: PC3-CXCR4 xenograft tumors; set-up: method as in PMID 29544122; settings: cited from earlier work
PC3-CXCR4 cells = experiment: Cell-associated activity in PC3-CXCR4 cells; assay type: cell-based, human; settings: 1 h
Description: Maximum cell-associated activity was calculated by subtracting the cell uptake of the radioactive ligand at the highest non-radioactive ligand concentration of 10 µM (which we considered to be non-specific uptake/binding) from the cell uptake at the lowest non-radioactive ligand concentration of 10^−5 µM.

[2] = test system: PC3-CXCR4 xenograft tumors; experiment: µPET/CT titration of tumor uptake by co-injection of AMD-3100 (block50); assay type: in vivo, BALB/c mice; settings: co-injection of AMD-3100, µPET/CT 1 h p.i.; listed as [^18F]RPS-544
Description: All animal studies were approved by the Institutional Animal Care and Use Committee of Weill Cornell Medicine (Protocol Number: 2015-0066) and were undertaken in accordance with the guidelines set forth by the USPHS Policy on Humane Care and Use of Laboratory Animals. Animals were housed under standard conditions in approved facilities with 12 h light/dark cycles. Food and water was provided ad libitum throughout the course of the studies. Hairless 6-to-8-week old male BALB/c inbred athymic nude mice (Jackson Laboratory, Bar Harbor, ME, USA) were inoculated bilaterally with 0.2 mL of a 1:1 mixture of 10^7 PC3-CXCR4 cells in PBS and Matrigel (Corning, Tewksbury, MA, USA) subcutaneously in the left shoulder and 0.2 mL of a 1:1 mixture of 10^7 PC3-WT cells in PBS and Matrigel subcutaneously in the right shoulder. […]
For the imaging studies, the tumor-bearing mice (n = 2/compound) were injected intravenously with 100 μL of a 9% v/v EtOH/saline solution containing approximately 3.7 MBq of the radioligand. […] Tumor uptake was quantified by the following procedure: CT-aided regions of interest were drawn, and tissue concentration was determined by comparison with a 3 %ID/cm^3 standard included in the field of view. Uptake was expressed as percent injected dose per centimeter cubed (%ID/cm^3) ± standard deviation.

CXCR4 [3] = biological target: T1, CXCR4 (Homo sapiens, UniProt P61073); experiment: Competition binding assay vs [^68Ga]Pentixafor in PC3-CXCR4 cells
T1 construct: expressed in transfected cells; host or cells: PC3 (human prostate cancer) cells stably transduced with CXCR4
T1 sequence (P61073 whole entry): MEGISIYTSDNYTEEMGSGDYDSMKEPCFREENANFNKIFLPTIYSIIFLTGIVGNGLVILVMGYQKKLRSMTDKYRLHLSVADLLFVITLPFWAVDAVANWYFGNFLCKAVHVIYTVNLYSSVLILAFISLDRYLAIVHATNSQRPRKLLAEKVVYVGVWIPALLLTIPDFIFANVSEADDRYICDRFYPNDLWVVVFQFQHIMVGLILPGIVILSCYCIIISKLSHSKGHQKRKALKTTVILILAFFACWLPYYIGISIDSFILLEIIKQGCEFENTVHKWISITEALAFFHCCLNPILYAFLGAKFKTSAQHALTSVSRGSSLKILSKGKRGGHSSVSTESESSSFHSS
Description: PC3-CXCR4 cells were plated in 12-well plates at a density of 500,000 cells per well and incubated for 48 h at 37 °C/5% CO2. Prior to the binding assay the cells were incubated in fresh media and 370–555 kBq of [^68Ga]Pentixafor or [^18F]RPS-544 was added to each well. The corresponding concentration of [^68Ga]Pentixafor in each well was 100 nM, and the concentration of [^18F]RPS-544 was approximately 5 pM. Then non-radioactive ligands were added to give a final ligand concentration in the range 0.001–10,000 nM. A total of eight concentrations were studied, and each concentration was tested in triplicate. The cells were incubated for 60 min at 37 °C/5% CO2. The media was removed under suction, the cells were washed with cold PBS 1X and detached and transferred to tubes for counting in 1 M NaOH. The cells were counted in a Wizard^2 Gamma Counter (PerkinElmer, Waltham, MA, USA). Non-specific binding was subtracted, and the IC50 values were determined by assuming a simple competitive binding interaction and fitting the data to a sigmoidal Hill plot in Origin 9.0 (OriginLab, Northampton, MA, USA). Potencies are expressed as IC50 ± standard deviation (Supplemental Data, Figure S7).

CXCR4 [4] = biological target: T1, CXCR4; experiment: Saturation binding assay in PC3-CXCR4 cells
Description: To determine the dissociation constants, saturation binding assays were performed in the PC3-CXCR4 cells. The cells were plated as described above, and approximately 5 nM of the radioligand was added to each well. Then the corresponding non-radioactive ligand was added to give a final concentration in the range 0.001–10,000 nM. A total of eight concentrations were tested, and each concentration was tested in triplicate. The samples were washed and counted as described above. Non-specific binding was subtracted, and Kd values were determined by performing a nonlinear one site binding curve fit with equation y = (Bmax · x)/(Kd + x). Values are expressed as Kd ± standard deviation (Supplemental Data, Figure S8).

IC50 (CXCR4 [3]; vs 100 nM [^68Ga]Pentixafor, PC3-CXCR4 cells, 60 min 37 °C): 6.3 ± 0.8 nM
Hill Slope, Competitive Binding Experiment (CXCR4 [3]; vs [^68Ga]Pentixafor, value ± SD): 1.13 ± 0.47
Kd (CXCR4 [4]; saturation binding, PC3-CXCR4 cells): 5.1 ± 1 nM
Hill Slope, Saturation Binding Experiment (CXCR4 [4]; value ± SD): 1.06 ± 0.11
Structure (SMILES): Fc1cccc(CNCc2ccc(CN3CCCNCCNCCCNCC3)cc2)n1 [RPS-544]
PC3-CXCR4 Tumor-to-Tissue Ratio Blood ([1]; 1 h p.i.): 2.5 ± 0.4
PC3-CXCR4 Tumor-to-Tissue Ratio Bone ([1]; 1 h p.i.): 4.2 ± 1.2
PC3-CXCR4 Tumor-to-Tissue Ratio Kidneys ([1]; 1 h p.i.): 0.1 ± 0.1
PC3-CXCR4 Tumor-to-Tissue Ratio Liver ([1]; 1 h p.i.): 0.1 ± 0.1
PC3-CXCR4 Tumor-to-Tissue Ratio Lungs ([1]; 1 h p.i.): 2.0 ± 1.2
PC3-CXCR4 Tumor-to-Tissue Ratio Muscle ([1]; 1 h p.i.): 11.1 ± 0.4
PC3-CXCR4 Tumor-to-Tissue Ratio PC3-WT ([1]; 1 h p.i.): 3.3 ± 1.3
PC3-CXCR4 Tumor Uptake ([1]; 1 h p.i., previously published data): 3.4 ± 1.2 %ID/g
PC3-CXCR4 Tumor-to-Tissue Ratio Blood ([1]; 2 h p.i.): 4.8 ± 0.1
PC3-CXCR4 Tumor-to-Tissue Ratio Bone ([1]; 2 h p.i.): 2.9 ± 0.3
PC3-CXCR4 Tumor-to-Tissue Ratio Kidneys ([1]; 2 h p.i.): 0.1 ± 0.1
PC3-CXCR4 Tumor-to-Tissue Ratio Liver ([1]; 2 h p.i.): 0.1 ± 0.1
PC3-CXCR4 Tumor-to-Tissue Ratio Lungs ([1]; 2 h p.i.): 1.7 ± 0.3
PC3-CXCR4 Tumor-to-Tissue Ratio Muscle ([1]; 2 h p.i.): 6.7 ± 0.2
PC3-CXCR4 Tumor-to-Tissue Ratio PC3-WT ([1]; 2 h p.i.): 2.6 ± 0.3
Cell-Associated Activity (PC3-CXCR4 cells): 8.2 ± 0.3 %IA
Block50: dose of AMD-3100 reducing uptake in PC3-CXCR4 tumors by 50% [2]: 0.17 ± 0.06 mg/kg
